Laboratory results reported in patent US20240009191A1, “METHOD AND COMPOSITION FOR THE TREATMENT OF DISEASE” (DIMERIX BIOSCIENCE PTY LTD, priority 2019, published 2024).

Tests used:
Type in all cases: cell-based
[1] = biological target: T1, AT1R and CXCR2 (Homo sapiens, UniProt P25025+P30556); test: IP1 accumulation, HEK293 cells stably-expressing CXCR2 and transiently-transfected with AT1R
T1 sequence (P30556 1-359): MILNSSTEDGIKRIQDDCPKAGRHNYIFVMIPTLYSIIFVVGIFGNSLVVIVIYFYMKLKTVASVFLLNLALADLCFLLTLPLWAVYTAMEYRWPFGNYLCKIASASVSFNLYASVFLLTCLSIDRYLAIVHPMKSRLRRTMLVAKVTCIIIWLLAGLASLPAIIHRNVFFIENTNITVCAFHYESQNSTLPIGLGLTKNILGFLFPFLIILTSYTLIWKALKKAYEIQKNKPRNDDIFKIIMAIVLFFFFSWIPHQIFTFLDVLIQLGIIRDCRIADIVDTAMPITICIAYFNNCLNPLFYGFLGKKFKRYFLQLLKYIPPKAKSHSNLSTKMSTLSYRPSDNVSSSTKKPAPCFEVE
T1 sequence (P25025 1-360): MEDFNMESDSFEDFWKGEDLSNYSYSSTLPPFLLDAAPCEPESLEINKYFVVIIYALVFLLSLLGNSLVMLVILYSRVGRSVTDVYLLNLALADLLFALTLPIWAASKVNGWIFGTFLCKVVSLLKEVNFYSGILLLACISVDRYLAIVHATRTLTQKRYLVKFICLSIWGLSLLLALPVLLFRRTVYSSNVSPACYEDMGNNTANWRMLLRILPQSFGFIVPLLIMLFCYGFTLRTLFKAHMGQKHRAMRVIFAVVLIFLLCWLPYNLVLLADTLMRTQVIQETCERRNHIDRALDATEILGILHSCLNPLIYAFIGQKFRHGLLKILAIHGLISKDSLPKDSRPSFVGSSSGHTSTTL

[2] = biological target: T2, AT1R-CXCR2 heteromer (Homo sapiens, UniProt P25025+P30556); test: BRET trafficking of CXCR2/Rluc8 to Venus/Kras or Venus/Rab markers, presence of HA-AT1R
T2 sequence (P25025 1-360): T1 sequence (P25025 1-360)
T2 sequence (P30556 1-359): T1 sequence (P30556 1-359)
Method: (§1) HEK293FT cells were seeded in 6-well plates at a density of approximately 700,000 cells/well and maintained at 37° C., 5% CO2 in Complete Media (DMEM containing 0.3 mg/ml glutamine, 100 IU/ml penicillin and 100 μg/ml streptomycin (Gibco/Thermo Fisher)) supplemented with 10% fetal calf serum (FCS; Bovogen). Transient transfections were carried out 24 h after seeding using FuGene6™ (Promega) according to manufacturer instructions. 24 h post-transfection, cells were washed with PBS, detached using 0.05% trypsin/0.53 mM EDTA, resuspended in HEPES-buffered phenol red free Complete Media containing 5% FCS and added to a poly-L-lysine-coated white 96-well microplate (Greiner Bio-One). 48 h post-transfection, bioluminescence resonance energy transfer (BRET) assays were carried out following pre-incubation of cells with EnduRen™ (Promega) at a final concentration of 30 μM, at 37° C., 5% CO2 for 2 h. BRET measurements were taken at 37° C. using the LUMlstar™ or CLARIOstar™ (BMG Labtech). Filtered light emissions were measured for 1 s in each of the ‘donor wavelength window’ (460-490 nm for LUMlstar™ or 410-490 nm for CLARIOstar™) and ‘acceptor wavelength window’ (520-550 nm for LUMlstar™ or 520-620 nm for CLARIOstar™).
(§2) The BRET signal observed between interacting proteins is normalized by subtracting the background BRET ratio. This can be done in one of two ways (see Pfleger et al. (2006) Cell Signal 18:1664-1670; Pfleger et al. (2006) Nat Protoc 1:336-344): 1) the ratio of the 520-550 nm or 520-620 nm emission over the 460-490 nm or 410-490 nm emission for a cell sample containing only the donor construct is subtracted from the same ratio for a sample containing the interacting acceptor and donor fusion proteins; 2) the ratio of the 520-550 nm or 520-620 nm emission over the 460-490 nm or 410-490 nm emission for a cell sample treated with vehicle is subtracted from the same ratio for a second aliquot of the same cell sample treated with ligand. In the following examples, the second calculation will be used and the signal is described as ligand-induced BRET′. Furthermore, for data shown in FIGS. 4 to 20, all data points in a given set are corrected relative to the final data point prior to agonist treatment, which is fixed to zero. In keys on FIGS. 7 to 20, “>” means “followed by after 50 minutes”, with agonists added at time zero on the x-axes.
The Receptor-Heteromer Investigation Technology (Receptor-HIT) is an assay configuration that provides insights into receptor complexes (Ayoub et al. (2015) PLoS One 10(3):e0119803). It is also known as GPCR-HIT when assessing GPCRs. It is an assay configuration whereby one receptor (eg. CXCR2) is labelled with one component (eg. Renilla luciferase variant Rluc8) of a proximity-based reporter system (eg. BRET), the complementary component of which (eg. Venus yellow fluorescent protein) is fused to a receptor interacting partner (eg. mGsi).
(§3) Referring now to FIG. 3 (published in Tiulpakov et al (2016) Mol. Endocrinol. 30, 889-904), the proximity of Rluc8-tagged receptors to Venus-tagged Kras plasma membrane marker, or Venus-tagged Rabs specific for distinct subcellular locations, is monitored in live cells and in real-time using BRET. The Rab markers are: Venus/Rab5 (5) for early endosomes; Venus/Rab4 (4) for early endosome recycling; Venus/Rab11a (11) for recycling endosomes; Venus/Rab7 (7) for late endosomes/lysosomes; Venus/Rab9 (9) for late endosome trafficking to the trans-Golgi network; Venus/Rab1 (1) for endoplasmic reticulum trafficking to the cis-Golgi; Venus/Rab6 (6) for Golgi apparatus and trans-Golgi network; or Venus/Rab8 (8) for trans-Golgi network to plasma membrane.

[3] = biological target: T3, AT1R (Homo sapiens, UniProt P30556); test: BRET trafficking of AT1R/Rluc8 to Venus/Kras or Venus/Rab markers, absence of CXCR2; settings: 100 nM CXCL8, 1 μM AngII
T3 construct: expressed in transfected cells; host or cells: HEK293FT
T3 sequence (P30556 1-359): T1 sequence (P30556 1-359)
Method: as §1, §2, §3

Angiotensin II [AngII]
Rmax, IP1 accumulation [1]: 209 nM
proximity of CXCR2/Rluc8 to Venus/Kras (BRET) [2]: increased proximity
proximity of CXCR2/Rluc8 to Venus/Rab1 (BRET) [2]: barely any effect
proximity of CXCR2/Rluc8 to Venus/Rab4 (BRET) [2]: very small increase
proximity of CXCR2/Rluc8 to Venus/Rab5 (BRET) [2]: very small increase
proximity of CXCR2/Rluc8 to Venus/Rab6 (BRET) [2]: small increase
proximity of CXCR2/Rluc8 to Venus/Rab7 (BRET) [2]: barely any effect
proximity of CXCR2/Rluc8 to Venus/Rab8 (BRET) [2]: clear increase
proximity of CXCR2/Rluc8 to Venus/Rab9 (BRET) [2]: small increase
proximity of CXCR2/Rluc8 to Venus/Rab11a (BRET) [2]: barely any effect
proximity of AT1R/Rluc8 to Venus/Rab6 (BRET) ([3]; Golgi apparatus to trans-Golgi network, FIG. 5I): little effect
proximity of AT1R/Rluc8 to Venus/Rab4 (BRET) ([3]; early endosome recycling, FIG. 5E): increase
proximity of AT1R/Rluc8 to Venus/Rab5 (BRET) ([3]; early endosomes, FIG. 5G): substantial increase
proximity of AT1R/Rluc8 to Venus/Rab1 (BRET) ([3]; endoplasmic reticulum to cis-Golgi, FIG. 5C): increase
proximity of AT1R/Rluc8 to Venus/Rab9 (BRET) ([3]; late endosome to trans-Golgi network, FIG. 5O): increase
proximity of AT1R/Rluc8 to Venus/Rab7 (BRET) ([3]; late endosomes/lysosomes, FIG. 5K): increase
proximity of AT1R/Rluc8 to Venus/Kras (BRET) ([3]; plasma membrane marker, FIG. 5A): marked reduction
proximity of AT1R/Rluc8 to Venus/Rab11a (BRET) ([3]; recycling endosomes, FIG. 5Q): substantial increase
proximity of AT1R/Rluc8 to Venus/Rab8 (BRET) ([3]; trans-Golgi network to plasma membrane, FIG. 5M): small increase at later time-points
